Several values for one entry are separate records, joined by “and”; a condition that tells them apart may be missing. Equal values may be shown once. Entries after “also recorded” stand apart in the source; their conditions may differ. Read-outs that look alike come from different tables or passages of the source.
How the values were obtained:
[1] = tested on: A549 cells; assay: In vitro cytotoxicity assay (MTT), A549; conditions: for viability at 10 µM / IC50: Homo sapiens, A549, 48 h; for viability at 10 µM: read-out: percentage of cell viability, A549; for Selectivity index (SI), A549: IC50 against MRC-5/IC50 against A549
Description: (§1) The selected cell lines include A549, a lung cancer cell line that is characterized by its high expression of EGFR; SKOV-3, an ovarian cancer cell line, selected for its overexpression of both EGFR and HER2; and the breast cancer cell line (SKBR-3), characterized by HER2 overexpression.
(§2) Cells were passaged regularly at around 80% confluency using […] and maintained in 75 cm^2 flasks at 37 °C in a humidified atmosphere containing 5% CO2.
(§3) Approximately 10 × 10^3 cells were seeded per well of the 96-well plates using drug-free media and incubated for 24 h. […] After 48 h of drug exposure, the supernatant was aspirated, and the cells were washed with 100 μL of PBS. The MTT assay was performed by creating a stock solution of MTT at a concentration of 5 mg/mL in PBS. From this stock, a solution of MTT in the cell culture media was prepared to achieve a final concentration of 0.5 mg/mL. […] The MTT solution was thereafter removed, and the generated formazan crystals were dissolved by adding 100 μL of propanol/DMSO (50:50) per well. Absorbance was measured at 570 nm, and IC50 values for each compound were calculated by comparison against negative untreated controls.

[2] = tested on: SKOV-3 cells; assay: In vitro cytotoxicity assay (MTT), SKOV-3; format: cell-based, human; conditions: for viability at 10 µM: SK-OV-3, read-out: percentage of cell viability, SKOV-3; for viability at 10 µM / IC50: 48 h, MTT; for IC50: mean ± SD, three experiments; for Selectivity index (SI), SKOV-3: IC50 against MRC-5/IC50 against SKOV-3
Description: as §1, §2, §3

[3] = tested on: A2780 cells; assay: In vitro cytotoxicity assay (MTT), A2780; format: cell-based; conditions: Homo sapiens, 48 h, read-out: percentage of cell viability, A2780
[4] = tested on: SKBR-3 cells; assay: In vitro cytotoxicity assay (MTT), SKBR-3; format: cell-based, human; conditions: for IC50: MTT, 48 h, mean ± SD, three experiments; for Selectivity index (SI), SKBR-3: IC50 against MRC-5/IC50 against SKBR-3
Description: as §1, §2, §3

[5] = tested on: A549 cells; assay: Cell cycle assay (PI, flow cytometry); format: cell-based, human; conditions: A549, IC50 concentration; for Cell cycle comment / DNA Content (%) %G0–G1 / DNA Content (%) %G2/M / DNA Content (%) %S: 24 h; for DNA Content (%) %G0–G1 / DNA Content (%) %G2/M / DNA Content (%) %S: mean ± SD; for Cell Cycle Distribution Index (CDI): CDI = (G2/M + S)/(G0–G1)
Description: In a flat-bottom 6-well plate, 3 × 10^5 A549 cells were seeded per well and incubated at 37 °C for 24 h to allow attachment. […] Following a 24 h incubation period, the supernatant was removed by suction, and adherent cells were washed with PBS and collected with trypsin. Additionally, negative control (untreated) samples were also prepared. The cells were resuspended in 2 mL of 80% v/v of cold methanol for 45 min to achieve fixation. After centrifugation, the methanol was discarded, and the resulting cell pellets were washed and stained at room temperature for 30 min in the dark using propidium iodide PI (10% v/v of a 1 mg/mL stock solution in PBS) and RNAse (15% v/v of a 1 mg/mL stock solution in PBS). The cells were analyzed using flow cytometry, reading histograms in the red channel adjusted to PI (Em. 617 nm, Ex. 535 nm).

[6] = In vitro cytotoxicity assay (MTT), normal cell line MRC-5; format: cell-based; conditions: MRC-5 normal embryonic lung cells, normal human embryonic lung cell line, mean ± SD
Description: as §2, §3

[7] = tested on: A549 cells; assay: Apoptosis analysis (Annexin V-FITC/PI, flow cytometry); format: cell-based, human; conditions: A549, IC50 concentration, 24 h; for Apoptosis, Early / Apoptosis, Late / Necrosis: mean ± SD, % printed in text only
Description: Briefly, in flat-bottom 6-well plates, a total of 3 × 10^5 A549 cells were seeded per well and maintained at 37 °C for 24 h in a CO2 humidified atmosphere. Next, the cells were subjected to treatment with the equipotent concentration (1xIC50) of the tested compounds in the cell culture media. Following a 24 h incubation period, the supernatant was removed by suction, and attached cells were washed with PBS and collected using trypsin. Following the quenching of trypsin with culture media, the cells were resuspended as a single cell suspension in Annexin V binding buffer with 1% (v/v) propidium iodide and 1% (v/v) Annexin V-FITC. Negative (untreated) control samples were also included in the experiment. The samples were analyzed using flow cytometry, reading PI at Em. 617 nm, Ex. 535 nm, and Annexin-V-FITC at Em. 520 nm, Ex. 488 nm, while collecting 20,000 events/sample.

[8] = target: T1, EGFR (Homo sapiens, UniProt P00533); assay: In vitro enzyme inhibition assay, EGFR Kinase Assay Kit (BPS Bioscience); format: biochemical; conditions: three independent experiments; read-out: Protein Kinase Inhibition IC50, EGFR
T1 construct: purchased BPS Bioscience 40321
T1 sequence (P00533 25-1210): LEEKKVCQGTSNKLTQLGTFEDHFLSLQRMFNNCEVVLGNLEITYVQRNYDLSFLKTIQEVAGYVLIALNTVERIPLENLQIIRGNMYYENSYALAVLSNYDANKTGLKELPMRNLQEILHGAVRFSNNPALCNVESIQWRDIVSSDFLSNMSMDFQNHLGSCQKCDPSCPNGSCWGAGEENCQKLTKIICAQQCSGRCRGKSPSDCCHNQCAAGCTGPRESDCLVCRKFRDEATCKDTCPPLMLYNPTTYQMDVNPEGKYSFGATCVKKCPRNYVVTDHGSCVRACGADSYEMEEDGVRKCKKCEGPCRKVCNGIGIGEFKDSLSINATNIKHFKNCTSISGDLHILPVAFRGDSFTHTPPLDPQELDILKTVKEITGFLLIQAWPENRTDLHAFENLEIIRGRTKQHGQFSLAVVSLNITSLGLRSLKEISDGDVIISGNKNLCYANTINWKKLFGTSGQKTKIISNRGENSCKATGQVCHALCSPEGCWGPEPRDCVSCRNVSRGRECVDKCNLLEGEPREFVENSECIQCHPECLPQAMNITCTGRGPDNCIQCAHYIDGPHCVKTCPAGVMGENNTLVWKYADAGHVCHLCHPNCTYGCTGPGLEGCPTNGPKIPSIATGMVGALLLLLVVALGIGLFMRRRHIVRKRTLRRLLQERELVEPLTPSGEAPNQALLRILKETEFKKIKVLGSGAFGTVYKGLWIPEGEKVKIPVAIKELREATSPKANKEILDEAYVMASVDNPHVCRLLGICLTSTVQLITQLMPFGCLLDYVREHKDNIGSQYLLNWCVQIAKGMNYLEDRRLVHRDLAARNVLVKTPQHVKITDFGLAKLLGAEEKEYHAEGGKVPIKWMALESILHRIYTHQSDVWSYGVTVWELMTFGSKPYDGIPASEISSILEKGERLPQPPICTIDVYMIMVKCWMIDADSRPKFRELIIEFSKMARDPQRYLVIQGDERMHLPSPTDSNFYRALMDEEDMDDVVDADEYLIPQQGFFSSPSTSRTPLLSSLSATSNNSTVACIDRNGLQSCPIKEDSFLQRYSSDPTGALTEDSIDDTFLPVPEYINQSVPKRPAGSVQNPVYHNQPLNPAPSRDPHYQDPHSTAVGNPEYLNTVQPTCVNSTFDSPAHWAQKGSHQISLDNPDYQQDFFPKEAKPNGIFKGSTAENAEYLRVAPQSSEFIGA

[9] = target: T2, HER2 (Homo sapiens, UniProt P04626); assay: In vitro enzyme inhibition assay, HER2 Kinase Assay Kit (BPS Bioscience); format: biochemical; conditions: three independent experiments; read-out: Protein Kinase Inhibition IC50, HER2
T2 construct: purchased BPS Bioscience 40721
T2 sequence (P04626 23-1255): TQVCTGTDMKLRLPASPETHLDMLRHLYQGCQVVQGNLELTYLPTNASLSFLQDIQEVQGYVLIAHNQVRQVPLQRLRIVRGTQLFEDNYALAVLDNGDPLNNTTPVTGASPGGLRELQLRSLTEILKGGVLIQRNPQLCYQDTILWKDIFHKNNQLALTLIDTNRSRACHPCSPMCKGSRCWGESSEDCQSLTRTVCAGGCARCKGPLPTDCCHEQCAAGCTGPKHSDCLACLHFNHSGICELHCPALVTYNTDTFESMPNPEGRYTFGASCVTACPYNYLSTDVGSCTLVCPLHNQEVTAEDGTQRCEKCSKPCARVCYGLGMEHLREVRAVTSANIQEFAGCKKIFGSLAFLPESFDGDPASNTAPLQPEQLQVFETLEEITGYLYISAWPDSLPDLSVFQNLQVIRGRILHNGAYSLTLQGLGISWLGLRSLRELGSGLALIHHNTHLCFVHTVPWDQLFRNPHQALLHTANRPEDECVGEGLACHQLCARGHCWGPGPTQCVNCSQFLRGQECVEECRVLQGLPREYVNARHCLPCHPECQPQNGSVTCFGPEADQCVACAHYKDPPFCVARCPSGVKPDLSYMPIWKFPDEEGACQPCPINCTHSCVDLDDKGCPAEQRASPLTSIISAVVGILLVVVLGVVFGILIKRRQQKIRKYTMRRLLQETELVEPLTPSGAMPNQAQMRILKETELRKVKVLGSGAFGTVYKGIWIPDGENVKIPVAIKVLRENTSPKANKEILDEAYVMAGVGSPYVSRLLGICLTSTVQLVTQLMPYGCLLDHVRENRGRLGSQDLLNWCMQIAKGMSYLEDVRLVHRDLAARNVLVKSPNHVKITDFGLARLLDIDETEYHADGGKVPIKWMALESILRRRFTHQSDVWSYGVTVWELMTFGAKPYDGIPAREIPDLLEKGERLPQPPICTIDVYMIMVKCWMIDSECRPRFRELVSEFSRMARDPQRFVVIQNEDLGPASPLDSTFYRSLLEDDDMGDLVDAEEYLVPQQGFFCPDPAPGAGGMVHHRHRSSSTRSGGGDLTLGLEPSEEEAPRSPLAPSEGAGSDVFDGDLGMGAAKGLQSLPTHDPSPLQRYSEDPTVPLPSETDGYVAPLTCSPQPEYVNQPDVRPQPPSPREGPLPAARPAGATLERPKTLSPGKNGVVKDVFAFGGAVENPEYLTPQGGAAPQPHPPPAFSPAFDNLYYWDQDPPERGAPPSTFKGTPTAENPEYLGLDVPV

[10] = tested on: A549, SKOV-3, A2780, SKBR-3 cells; assay: MTT assay, ranges stated over several cell lines; format: cell-based, human; conditions: Homo sapiens; 10 µM, 48 h; A549 and SKOV-3; read-out: cell viability range for A549 and SKOV-3
Description: as §1, §2, §3

[11] = read-out: Cytotoxicity (IC50), A549, MTT, 48 h, mean ± SD, three experiments

O=C(N/N=C/c1ccccc1)c1ccc(Nc2ncnc3nc[nH]c23)cc1 [6a, (E)-4-((7H-Purin-6-yl)amino)-N′-benzylidenebenzohydrazide]
viability at 10 µM [1]: 63%
viability at 10 µM ([2]; Homo sapiens): 85%

O=C(N/N=C/c1cccc2ccccc12)c1ccc(Nc2ncnc3nc[nH]c23)cc1 [23a, (E)-4-((7H-Purin-6-yl)amino)-N′-(naphthalen-1-ylmethylene) benzohydrazide]
viability at 10 µM [1]: 74%
viability at 10 µM ([2]; Homo sapiens): 92%

N#Cc1ccc(/C=N/NC(=O)c2ccc(Nc3ncnc4nc[nH]c34)cc2)cc1 [7a, (E)-4-((7H-Purin-6-yl)amino)-N′-(4-cyanobenzylidene)benzohydrazide]
viability at 10 µM [1]: 50%
viability at 10 µM ([2]; Homo sapiens): 58%

O=C(N/N=C/c1ccccc1)c1ccc(Nc2ncnc3c2ncn3C2CCCC2)cc1 [6b, (E)-N′-benzylidene-4-((9-cyclopentyl-9H-purin-6-yl)amino)benzohydrazide]
viability at 10 µM [1]: 50%
viability at 10 µM [3]: 52%
viability at 10 µM ([2]; Homo sapiens): 60%

COc1ccc(/C=N/NC(=O)c2ccc(Nc3ncnc4nc[nH]c34)cc2)cc1 [13a, (E)-4-((7H-Purin-6-yl)amino)-N′-(4-methoxybenzylidene)benzohydrazide]
viability at 10 µM [1]: 86%

O=C(N/N=C/c1cccc(-c2ccccc2)c1)c1ccc(Nc2ncnc3c2ncn3C2CCCC2)cc1 [19b, (E)-N′-((1,1′-biphenyl)-3-ylmethylene)-4-((9-cyclopentyl-9H-purin-6-yl)amino)benzohydrazide]
IC50 ([4]; Homo sapiens, SK-BR-3, 48 h): 3.2 ± 0.899 µM
IC50 [1, 11]: 1.84 ± 0.082 µM
IC50 ([2]; Homo sapiens, SK-OV-3, 48 h): 15.6 ± 1.48 µM

O=C(N/N=C/c1cccc(C(F)(F)F)c1)c1ccc(Nc2ncnc3nc[nH]c23)cc1 [16a, (E)-4-((7H-Purin-6-yl)amino)-N′-(3-(trifluoromethyl)benzylidene)benzohydrazide]
viability at 10 µM [1]: 68%
viability at 10 µM ([2]; Homo sapiens): 69%

O=C(N/N=C/c1cccc(-c2ccccc2)c1)c1ccc(Nc2ncnc3nc[nH]c23)cc1 [19a, (E)-4-((7H-purin-6-yl)amino)-N′-([1,1′-biphenyl]-3-ylmethylene)benzohydrazide]
Cell cycle comment [5]: cell cycle arrest at the G1 phase
DNA Content (%) %G0–G1 [5]: 86.9% and 86.88% and 86.88 ± 0.95 %
DNA Content (%) %G2/M [5]: 3.9% and 3.90 ± 1.22 %
DNA Content (%) %S [5]: 9.2% and 9.21% and 9.21 ± 1.43 %
Cell Cycle Distribution Index (CDI) [5]: 0.15
IC50 at 48 h [6]: 52.36 ± 0.283 µM
IC50 ([4]; Homo sapiens, SK-BR-3, 48 h): 1.41 µM
Selectivity index (SI), SKBR-3 [4]: 37.03
IC50 [4]: 1.41 ± 0.362 µM
IC50 [1, 11]: 0.81 ± 0.139 µM
viability at 10 µM [1]: 39%
Selectivity index (SI), A549 [1]: 64.6
viability at 10 µM [3]: 18%
percentage of live cells [7]: 62.3%
Apoptosis, Early [7]: 9.72% and 9.72 ± 1.06 %
Apoptosis, Late [7]: 23.13% and 23.13 ± 0.73 %
Necrosis [7]: 4.84 ± 0.34%
IC50 [8]: 0.08 µM and 0.081 µM
IC50 [9]: 0.059 ± 0.002 µM
IC50 ([2]; Homo sapiens, SK-OV-3, 48 h): 2.19 ± 0.16 µM
viability at 10 µM ([2]; Homo sapiens): 43%
Selectivity index (SI), SKOV-3 [2]: 23.88
IC50 [2]: 2.19 ± 0.164 µM

C#Cc1cccc(Nc2ncnc3cc(OCCOC)c(OCCOC)cc23)c1 [Erlotinib, erlotinib, reference compound]
IC50 at 48 h [6]: 19.36 ± 0.138 µM
IC50 ([4]; Homo sapiens, SK-BR-3, 48 h): 5.12 ± 0.879 µM
IC50 ([1]; read-out: Cytotoxicity (IC50), A549): 2.42 ± 0.784 µM
viability at 10 µM [1]: 48%
viability at 10 µM [3]: 39%
IC50 ([2]; Homo sapiens, SK-OV-3, 48 h): 5.18 ± 1.2 µM
viability at 10 µM ([2]; Homo sapiens): 44%

COc1cccc(/C=N/NC(=O)c2ccc(Nc3ncnc4nc[nH]c34)cc2)c1 [12a, (E)-4-((7H-Purin-6-yl)amino)-N′-(3-methoxybenzylidene)benzohydrazide]
viability at 10 µM [1]: 75%

O=C(N/N=C/c1cccc2ccccc12)c1ccc(Nc2ncnc3c2ncn3C2CCCC2)cc1 [23b, (E)-4-((9-cyclopentyl-9H-purin-6-yl)amino)-N′-(naphthalen-1-ylmethylene)benzohydrazide]
viability at 10 µM [10]: 81 to 100%

NS(=O)(=O)c1cc(/C=N/NC(=O)c2ccc(Nc3ncnc4c3ncn4C3CCCC3)cc2)ccc1F [22b, (E)-5-((2-(4-((9-cyclopentyl-9H-purin-6-yl)amino)benzoyl)hydrazineylidene)methyl)-2-fluorobenzenesulfonamide]
Cell cycle comment [5]: arrests the cell cycle at the G1 phase; also recorded: Cell cycle arrest@G1
DNA Content (%) %G0–G1 [5]: 77.0% and 77.04% and 77.04 ± 1.85 %
DNA Content (%) %G2/M [5]: 4.4% and 4.35% and 4.35 ± 0.29 %
DNA Content (%) %S [5]: 18.6% and 18.60 ± 2.00 %
Cell Cycle Distribution Index (CDI) [5]: 0.29
IC50 at 48 h [6]: 60.59 ± 0.329 µM
IC50 ([4]; Homo sapiens, SK-BR-3, 48 h): 3.8 ± 1.4 µM
Selectivity index (SI), SKBR-3 [4]: 15.94
IC50 [4]: 3.8 ± 1.4 µM
IC50 [1, 11]: 3.95 ± 0.615 µM
viability at 10 µM [1]: 35%
Selectivity index (SI), A549 [1]: 15.34
viability at 10 µM [3]: 47%
percentage of live cells [7]: 72.51%
Apoptosis, Early [7]: 5.92% and 5.92 ± 0.74 %
Apoptosis, Late [7]: 18.21% and 18.21 ± 0.12 %
Necrosis [7]: 3.35 ± 0.49%
IC50 [8]: 0.07 µM and 0.074 µM
IC50 [9]: 0.03 µM and 0.033 µM
IC50 ([2]; Homo sapiens, SK-OV-3, 48 h): 1.54 ± 0.47 µM
viability at 10 µM ([2]; Homo sapiens): 31%
Selectivity index (SI), SKOV-3 [2]: 39.32
IC50 [2]: 1.54 ± 0.47 µM

COc1cc(C)c(/C=N/NC(=O)c2ccc(Nc3ncnc4c3ncn4C3CCCC3)cc2)cc1C [18b, (E)-4-((9-cyclopentyl-9H-purin-6-yl)amino)-N′-(4-methoxy-2,5-dimethylbenzylidene) benzohydrazide]
viability at 10 µM [10]: 81 to 100%

CS(=O)(=O)CCNCc1ccc(-c2ccc3ncnc(Nc4ccc(OCc5cccc(F)c5)c(Cl)c4)c3c2)o1 [Lapatinib, lapatinib, reference compound]
IC50 at 48 h [6]: 43.94 ± 0.42 µM
IC50 ([4]; Homo sapiens, SK-BR-3, 48 h): 8.54 ± 0.64 µM
IC50 [1, 11]: 11.6 ± 0.249 µM
IC50 ([2]; Homo sapiens, SK-OV-3, 48 h): 16.9 ± 2.57 µM

O=C(N/N=C/c1ccc(F)c(C(F)(F)F)c1)c1ccc(Nc2ncnc3nc[nH]c23)cc1 [17a, (E)-4-((7H-Purin-6-yl)amino)-N′-(4-fluoro-3-(trifluoromethyl)benzylidene) benzohydrazide]
viability at 10 µM [1]: 59%
viability at 10 µM ([2]; Homo sapiens): 63%

O=C(N/N=C/c1ccc([N+](=O)[O-])cc1)c1ccc(Nc2ncnc3nc[nH]c23)cc1 [15a, (E)-4-((7H-Purin-6-yl)amino)-N′-(4-nitrobenzylidene)benzohydrazide]
viability at 10 µM [1]: 49%
viability at 10 µM ([2]; Homo sapiens): 44%

From article PMC12299904, “Purine–Hydrazone Scaffolds as Potential Dual EGFR/HER2 Inhibitors” (Pharmaceuticals, 2025)
